Drawing on patent US20110098288A1, “SULFONAMIDES AS ZAP-70 INHIBITORS” (priority 2008, published 2011), this text covers IC50 for 26 compounds.

Where a name gives a salt, the structure may show the parent alone.

The target in one test is T1, ZAP-70 (Homo sapiens, UniProt P43403).
T1 construct: endogenous in cells; host or cells: cell lysate
T1 sequence (P43403 1-619): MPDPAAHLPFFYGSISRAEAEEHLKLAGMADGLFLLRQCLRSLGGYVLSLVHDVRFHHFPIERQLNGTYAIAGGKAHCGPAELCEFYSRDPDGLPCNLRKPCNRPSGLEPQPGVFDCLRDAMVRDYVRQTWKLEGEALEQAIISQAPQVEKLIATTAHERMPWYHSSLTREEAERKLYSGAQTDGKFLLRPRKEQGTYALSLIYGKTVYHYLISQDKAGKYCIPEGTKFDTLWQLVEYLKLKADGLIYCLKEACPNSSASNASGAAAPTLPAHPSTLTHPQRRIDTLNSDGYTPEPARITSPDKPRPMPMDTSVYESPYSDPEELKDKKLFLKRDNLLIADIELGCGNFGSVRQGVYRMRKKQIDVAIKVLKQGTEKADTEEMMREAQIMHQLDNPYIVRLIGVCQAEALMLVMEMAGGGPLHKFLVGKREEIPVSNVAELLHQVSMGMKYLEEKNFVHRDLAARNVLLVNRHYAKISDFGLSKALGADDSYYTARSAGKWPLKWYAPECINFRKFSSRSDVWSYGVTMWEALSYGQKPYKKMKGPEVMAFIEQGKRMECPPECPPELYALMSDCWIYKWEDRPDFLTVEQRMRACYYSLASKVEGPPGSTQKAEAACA
Description: ZAP-70 kinobeads assay. Type of test: binding. Particulars: competition with immobilized aminopyrido-pyrimidine ligand 24 in cell lysate; ZAP-70 detected by dot blot. Summed up: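 Cell lysate aliquots incubated with test compounds at various concentrations plus affinity beads carrying immobilized aminopyrido-pyrimidine ligand 24. Bead-captured proteins eluted; ZAP-70 quantified by specific antibody dot blot with infrared detection.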

A further test deals with Jurkat cells. Kind of test: Calcium release assay (Fluo-4 flow cytometry after anti-CD3 stimulation). Type of test: cell-based. Particulars: Homo sapiens, Jurkat cell line J77, anti-CD3 activation, read-out: IC50 (Calcium ion release in cells). The method in brief:
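Jurkat J77 cells loaded with Fluo-4/Pluronic F-127 for 30 min at 37 °C, then incubated with compound at room temperature in the dark in PBS–CaCl2 with 10% FCS. Stimulation with anti-CD3 (0.2 μg/ml final) plus GAM (0.75 μg/ml final) at 37 °C, then flow-cytometric Ca2+ fluorescence acquired for 200 s.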

A word on the IC50: it is the concentration needed to halve the response being measured.

As for `CCN(CC)CCOc1cccc(Nc2ncc(Cl)c(Nc3ccccc3NS(C)(=O)=O)n2)c1` [Example 126, N-(2-(5-chloro-2-(3-(2-(diethylamino)ethoxy)phenylamino)pyrimidin-4-ylamino)phenyl)methanesulfonamide], the IC50 at ZAP-70 and with Jurkat cells was < 100 nM throughout.

In the case of `CCN(CC)CCOc1ccc(Nc2ncc(Cl)c(Nc3ccccc3NS(C)(=O)=O)n2)cc1` [Example 127, N-(2-(5-chloro-2-(4-(2-(diethylamino)ethoxy)phenylamino)pyrimidin-4-ylamino)phenyl)methanesulfonamide], the IC50 at ZAP-70 and with Jurkat cells was < 100 nM in each case.

On to `Cc1cccc(Nc2nc(Nc3cccc(OCCN4CCCCC4)c3)ncc2Cl)c1NS(C)(=O)=O` [Example 128, N-(2-(5-chloro-2-(3-(2-(piperidin-1-yl)ethoxy)phenylamino)pyrimidin-4-ylamino)-6-methylphenyl)methanesulfonamide], for which the IC50 on ZAP-70 and in the test on Jurkat cells was < 100 nM in each case.

In the case of `CS(=O)(=O)Nc1ccccc1Nc1nc(Nc2cccc(OCC3CCNCC3)c2)ncc1Cl` [Example 129, N-(2-(5-chloro-2-(3-(piperidin-4-ylmethoxy)phenylamino)pyrimidin-4-ylamino)phenyl)methanesulfonamide], the IC50 at ZAP-70 was < 100 nM; in the test on Jurkat cells, 100 to 1000 nM.

Take `CS(=O)(=O)Nc1ccccc1Nc1nc(Nc2cccc(OCCN3CCCC3=O)c2)ncc1Cl` [Example 130, N-(2-(5-chloro-2-(3-(2-(2-oxopyrrolidin-1-yl)ethoxy)phenylamino)pyrimidin-4-ylamino)phenyl)methanesulfonamide]: the IC50 is 100 to 1000 nM at ZAP-70 and < 100 nM in the test on Jurkat cells.

As to `CS(=O)(=O)Nc1ccccc1Nc1nc(Nc2ccc(NC(=O)CN3CCCC3)cc2)ncc1Cl` [Example 132, N-(4-(5-chloro-4-(2-(methylsulfonamido)phenylamino)pyrimidin-2-ylamino)phenyl)-2-(pyrrolidin-1-yl)acetamide], the half-maximal inhibitory concentration (IC50) on ZAP-70 was 100 to 1000 nM; in the test with Jurkat cells, < 100 nM.

Take `CS(=O)(=O)Nc1ccccc1Nc1nc(Nc2cccc(OCCCN3CCCCC3)c2)ncc1Cl` [Example 134]: the values for the IC50 at ZAP-70 and with Jurkat cells were < 100 nM and 100 to 1000 nM, respectively.

`CN1CCN(CCCOc2cccc(Nc3ncc(Cl)c(Nc4ccccc4NS(C)(=O)=O)n3)c2)CC1` [Example 135]: the IC50 at ZAP-70 and with Jurkat cells was < 100 nM each time.

Take `CN1CCN(CCCOc2ccc(Nc3ncc(Cl)c(Nc4ccccc4NS(C)(=O)=O)n3)cc2)CC1` [Example 136, N-(2-(5-chloro-2-(4-(3-(4-methylpiperazin-1-yl)propoxy)phenylamino)pyrimidin-4-ylamino)phenyl)methanesulfonamide]: the IC50 on ZAP-70 and in the test with Jurkat cells was < 100 nM throughout.

As for `COc1cc(Nc2ncc(Cl)c(Nc3ccccc3NS(C)(=O)=O)n2)cc(OCC(C)C)c1OC` [Example 137, N-(2-(5-chloro-2-(3-isobutoxy-4,5-dimethoxyphenylamino)pyrimidin-4-ylamino)phenyl)methanesulfonamide], the IC50 on ZAP-70 was < 100 nM; in the test with Jurkat cells, 100 to 1000 nM.

Take `COc1cc(Nc2ncc(Cl)c(Nc3ccccc3NS(C)(=O)=O)n2)cc(OC)c1OC` [Example 138, N-(2-(5-chloro-2-(3,4,5-trimethoxyphenylamino)pyrimidin-4-ylamino)phenyl)methanesulfonamide hydrochloride]: the IC50 at ZAP-70 and in the test with Jurkat cells was < 100 nM throughout.

With `COc1ccc(Nc2ncc(Cl)c(Nc3ccccc3NS(C)(=O)=O)n2)cc1` [Example 139, N-(2-(5-chloro-2-(4-methoxyphenylamino)pyrimidin-4-ylamino)phenyl)methanesulfonamide hydrochloride], the IC50 at ZAP-70 was 100 to 1000 nM; with Jurkat cells, < 100 nM.

In the case of `CS(=O)(=O)Nc1ccccc1Nc1nc(Nc2cccc(OCCN3CCCC3)c2)ncc1Cl` [Example 140, N-(2-(5-chloro-2-(3-(2-(pyrrolidin-1-yl)ethoxy)phenylamino)pyrimidin-4-ylamino)phenyl)methanesulfonamide], the IC50 at ZAP-70 and with Jurkat cells was < 100 nM each time.

In the case of `COc1cc(Nc2ncc(Cl)c(Nc3ccccc3NS(C)(=O)=O)n2)ccc1OCCN1CCCC1` [Example 141, N-(2-(5-chloro-2-(3-methoxy-4-(2-(pyrrolidin-1-yl)ethoxy)phenylamino)pyrimidin-4-ylamino)phenyl)methanesulfonamide], the IC50 on ZAP-70 and in the test with Jurkat cells was < 100 nM in each case.

On to `COc1cc(Nc2ncc(Cl)c(Nc3ccccc3NS(C)(=O)=O)n2)ccc1OCCN1CCCCC1` [Example 142, N-(2-(5-chloro-2-(3-methoxy-4-(2-(piperidin-1-yl)ethoxy)phenylamino)pyrimidin-4-ylamino)phenyl)methanesulfonamide hydrochloride], for which the IC50 at ZAP-70 is < 100 nM; with Jurkat cells, 100 to 1000 nM.

Regarding `CN1CCCCC1COc1cccc(Nc2ncc(Cl)c(Nc3ccccc3NS(C)(=O)=O)n2)c1` (stereo not shown) [Example 145, N-(2-(5-chloro-2-(3-((1-methylpiperidin-2-yl)methoxy)phenylamino)pyrimidin-4-ylamino)phenyl)methanesulfonamide], the values for the IC50 at ZAP-70 and in the test with Jurkat cells were < 100 nM and 100 to 1000 nM, respectively.

`CN1CCCC(COc2cccc(Nc3ncc(Cl)c(Nc4ccccc4NS(C)(=O)=O)n3)c2)C1` (stereo not shown) [Example 146, N-(2-(5-chloro-2-(3-((1-methylpiperidin-3-yl)methoxy)phenylamino)pyrimidin-4-ylamino)phenyl)methanesulfonamide]: the IC50 at ZAP-70 and in the test on Jurkat cells was < 100 nM in each case.

Regarding `CN1CCN(C)C(COc2cccc(Nc3ncc(Cl)c(Nc4ccccc4NS(C)(=O)=O)n3)c2)C1` (stereo not shown) [Example 147, N-(2-(5-chloro-2-(3-((1,4-dimethylpiperazin-2-yl)methoxy)phenylamino)pyrimidin-4-ylamino)phenyl)methanesulfonamide], the IC50 at ZAP-70 and in the test on Jurkat cells was < 100 nM in each case.

Turning to `CCN(CC)C(=O)COc1cccc(Nc2ncc(Cl)c(Nc3ccccc3NS(C)(=O)=O)n2)c1` [Example 150, 2-(3-(5-chloro-4-(2-(methylsulfonamido)phenylamino)pyrimidin-2-ylamino)phenoxy)-N,N-diethylacetamide], the half-inhibitory concentration (IC50) at ZAP-70 is 100 to 1000 nM; in the test on Jurkat cells, < 100 nM.

On to `CCNC(=O)COc1cccc(Nc2ncc(Cl)c(Nc3ccccc3NS(C)(=O)=O)n2)c1` [Example 151, 2-(3-(5-chloro-4-(2-(methylsulfonamido)phenylamino)pyrimidin-2-ylamino)phenoxy)-N-ethylacetamide 2,2,2-trifluoroacetate], for which the IC50 at ZAP-70 and in the test with Jurkat cells was < 100 nM throughout.

With `COc1ccc(Nc2nc(Nc3cc(OC)c(OC)c(OC)c3)ncc2Cl)c(NS(C)(=O)=O)c1` [Example 152, N-(2-(5-chloro-2-(3,4,5-trimethoxyphenylamino)pyrimidin-4-ylamino)-5-methoxyphenyl)methanesulfonamide], the IC50 at ZAP-70 and in the test on Jurkat cells was < 100 nM each time.

For the compound `CCN(c1ccccc1Nc1nc(Nc2cc(OC)c(OC)c(OC)c2)ncc1F)S(C)(=O)=O` [Example 154, N-ethyl-N-(2-(5-fluoro-2-(3,4,5-trimethoxyphenylamino)pyrimidin-4-ylamino)phenyl)methanesulfonamide], the IC50 was 100 to 1000 nM on ZAP-70 and < 100 nM in the test on Jurkat cells.

Turning to `CCN(c1ccccc1Nc1nc(Nc2ccc(OCCN3CCCCC3)cc2)ncc1F)S(C)(=O)=O` [Example 158, N-ethyl-N-(2-(5-fluoro-2-(4-(2-(piperidin-1-yl)ethoxy)phenylamino)pyrimidin-4-ylamino)phenyl)methanesulfonamide], the IC50 is 100 to 1000 nM at ZAP-70 and < 100 nM with Jurkat cells.

On to `COc1cc(Nc2ncc(Cl)c(Nc3cccc(C)c3NS(C)(=O)=O)n2)cc(OC)c1OC` [Example 160, N-(2-(5-chloro-2-(3,4,5-trimethoxyphenylamino)pyrimidin-4-ylamino)-6-methylphenyl)methanesulfonamide], for which the IC50 at ZAP-70 and in the test with Jurkat cells was < 100 nM each time.

As to `COc1cc(Nc2ncc(F)c(Nc3cccc(C(C)C)c3NS(C)(=O)=O)n2)cc(OC)c1OC` [Example 161, N-(2-(5-fluoro-2-(3,4,5-trimethoxyphenylamino)pyrimidin-4-ylamino)-6-isopropylphenyl)methanesulfonamide], the IC50 at ZAP-70 and in the test on Jurkat cells was 100 to 1000 nM each time.

For the compound `COc1cc(Nc2ncc(F)c(Nc3ccc(F)c(C)c3NS(C)(=O)=O)n2)cc(OC)c1OC` [Example 162, N-(3-fluoro-6-(5-fluoro-2-(3,4,5-trimethoxyphenylamino)pyrimidin-4-ylamino)-2-methylphenyl)methanesulfonamide], the IC50 at ZAP-70 and in the test on Jurkat cells was 100 to 1000 nM in each case.
